Assay results taken from patent publication US20230085307A1, “PYRIDAZINONE COMPOUND AND HERBICIDE” (NISSAN CHEMICAL CORPORATION, priority 2019, published 2023).

Key:
Japanese bulrush = assay: Test Example 1: herbicidal activity, application before weed generation under submerged conditions (Table 16, symbol B); format: in vivo, Japanese bulrush (Schoenoplectus juncoides); conditions: 320 g/ha applied herbicide
Summary of the method: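 Alluvial soil was flooded to 4 cm depth, weed seeds were sown mixed and 2.5-leaf rice seedlings were transplanted. On sowing day, the compound's emulsion, diluted in water to a set dose, was applied to the water surface. Plants grew at 25–30 °C and were scored 0–5 after three weeks.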

late watergrass = assay: Test Example 2: herbicidal activity, application during weed generation under submerged conditions (Table 17, symbol A); format: in vivo, late watergrass (Echinochloa oryzicola); conditions: AAH 320 g/ha; application during weed generation, submerged conditions
Summary of the method: (§1)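 Steps: fill Wagner pots with alluvial soil; add water to give 4 cm depth; sow the species mixed; grow under glass at 25–30° C.; at 1–2 leaves apply water-diluted emulsion formulation to the water surface at a fixed herbicide amount; score after 3 weeks.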

oval-leafed pondweed = assay: Test Example 2: herbicidal activity, application during weed generation under submerged conditions (Table 17, symbol C); format: in vivo, oval-leafed pondweed (Monochoria vaginalis); conditions: AAH 320 g/ha; application during weed generation, submerged conditions
Summary of the method: as §1

Chinese sprangletop = assay: Test Example 3: herbicidal effect by foliage application, Wagner pot (Table 18, symbol D); format: in vivo, chinese sprangletop (Leptochloa chinensis); conditions: 320 g/ha
Summary of the method: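 Plants were sown in alluvial soil held under 0.1–0.5 cm standing water and grown 14 days in a greenhouse at 25–30 °C. An emulsifiable formulation, water-diluted to the set dose, was then sprayed onto the foliage, and effects were scored three weeks later using previously defined criteria.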

southern crabgrass = assay: Test Example 4: herbicidal effect by soil treatment (Table 19, symbol F); format: in vivo, southern crabgrass (Digitaria ciliaris)
Summary of the method: (§2)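 Applied as a water-diluted emulsion, the compound was sprayed onto soil covering newly sown seeds. Evaluation came three weeks after application, in a greenhouse held at 25° C. to 30° C.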

wild oat [1] = assay: Test Example 4: herbicidal effect by soil treatment (Table 19, symbol I); format: in vivo, wild oat (Avena fatua)
Summary of the method: as §2

blackgrass = assay: Test Example 4: herbicidal effect by soil treatment (Table 19, symbol J); format: in vivo, blackgrass (Alopecurus myosuroides)
Summary of the method: as §2

Italian ryegrass = assay: Test Example 4: herbicidal effect by soil treatment (Table 19, symbol K); format: in vivo, Italian ryegrass (Lolium multiflorum)
Summary of the method: as §2

windgrass [2] = assay: Test Example 4: herbicidal effect by soil treatment (Table 19, symbol L); format: in vivo, windgrass (Apera spica-venti)
Summary of the method: as §2

lambsquarters [3] = assay: Test Example 4: herbicidal effect by soil treatment (Table 19, symbol O); format: in vivo, lambsquarters (Chenopodium album)
Summary of the method: as §2

persian speedwell [4] = assay: Test Example 4: herbicidal effect by soil treatment (Table 19, symbol R); format: in vivo, Persian speedwell (Veronica persica)
Summary of the method: as §2

barnyard grass = assay: Test Example 5: herbicidal effect by foliage application, plastic box (Table 20, symbol H); format: in vivo, barnyard grass (Echinochloa crus-galli); conditions: foliage application, 320 g/ha
Summary of the method: (§3)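 Sow seeds spot-wise in sterilized diluvial soil; cover with ~1.5 cm soil. Grow 14 days in greenhouse, 25° C. to 30° C. Spray foliage with emulsion diluted to predetermined amount. Rate effect after 3 weeks.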

wild oat [5] = assay: Test Example 5: herbicidal effect by foliage application, plastic box (Table 20, symbol I); format: in vivo, wild oat (Avena fatua); conditions: foliage application, 320 g/ha
Summary of the method: as §3

windgrass [6] = assay: Test Example 5: herbicidal effect by foliage application, plastic box (Table 20, symbol L); format: in vivo, windgrass (Apera spica-venti); conditions: foliage application, 320 g/ha
Summary of the method: as §3

velvetleaf = assay: Test Example 5: herbicidal effect by foliage application, plastic box (Table 20, symbol M); format: in vivo, velvetleaf (Abutilon theophrasti); conditions: foliage application, 320 g/ha
Summary of the method: as §3

lambsquarters [7] = assay: Test Example 5: herbicidal effect by foliage application, plastic box (Table 20, symbol O); format: in vivo, lambsquarters (Chenopodium album); conditions: foliage application, 320 g/ha
Summary of the method: as §3

persian speedwell [8] = assay: Test Example 5: herbicidal effect by foliage application, plastic box (Table 20, symbol R); format: in vivo, Persian speedwell (Veronica persica); conditions: foliage application, 320 g/ha
Summary of the method: as §3

[9] = amount of applied herbicide 320 g/ha
[10] = evaluated three weeks after application

## CCCC(=O)Oc1c(C)nn(C)c(=O)c1-c1c(-c2ccc(Cl)cc2)sc2ccc(Cl)cc12 [2-100]
Japanese bulrush
  Herbicidal effect on B: Japanese bulrush (grade 0-5): 3 (Herbicidal rate of 40% or more and less than 70%)
Late watergrass
  herbicidal effect rating, A: late watergrass: 3 (Herbicidal rate of 40% or more and less than 70%)
oval-leafed pondweed
  herbicidal effect rating, C: oval-leafed pondweed: 0 (Herbicidal rate of 5% or less (almost no effect))
Chinese sprangletop
  herbicidal effect on D (Chinese sprangletop), rating 0-5: 4 (Herbicidal rate of 70% or more and less than 90%)
Southern crabgrass; [9]
  F: southern crabgrass, herbicidal effect rating: 0 (Herbicidal rate of 5% or less (almost no effect))
Wild oat [1]; [9]
  I: wild oat, herbicidal effect rating: 0 (Herbicidal rate of 5% or less (almost no effect))
blackgrass; [9]
  J: blackgrass, herbicidal effect rating: 0 (Herbicidal rate of 5% or less (almost no effect))
Italian ryegrass; [9]
  K: Italian ryegrass, herbicidal effect rating: 3 (Herbicidal rate of 40% or more and less than 70%)
Windgrass [2]; [9]
  L: windgrass, herbicidal effect rating: 3 (Herbicidal rate of 40% or more and less than 70%)
Lambsquarters [3]; [9]
  O: lambsquarters, herbicidal effect rating: 2 (Herbicidal rate of 20% or more and less than 40%)
Persian speedwell [4]; [9]
  R: persian speedwell, herbicidal effect rating: 1 (Herbicidal rate of 5% or more and less than 20%)
Barnyard grass; [10]
  herbicidal effect on H: barnyard grass: 5 (Herbicidal rate of 90% or more (almost completely withered))
Wild oat [5]; [10]
  herbicidal effect on I: wild oat: 5 (Herbicidal rate of 90% or more (almost completely withered))
Windgrass [6]; [10]
  herbicidal effect on L: windgrass: 5 (Herbicidal rate of 90% or more (almost completely withered))
velvetleaf; [10]
  herbicidal effect on M: velvetleaf: 5 (Herbicidal rate of 90% or more (almost completely withered))
Lambsquarters [7]; [10]
  herbicidal effect on O: lambsquarters: 4 (Herbicidal rate of 70% or more and less than 90%)
Persian speedwell [8]; [10]
  herbicidal effect on R: persian speedwell: 5 (Herbicidal rate of 90% or more (almost completely withered))

## CCCOc1ccc(-c2sc3ccc(F)cc3c2-c2c(OC(=O)CCC)c(C)nn(C)c2=O)cc1 [2-033]
Japanese bulrush
  Herbicidal effect on B: Japanese bulrush (grade 0-5): 5 (Herbicidal rate of 90% or more (almost completely withered))
Late watergrass
  herbicidal effect rating, A: late watergrass: 1 (Herbicidal rate of 5% or more and less than 20%)
oval-leafed pondweed
  herbicidal effect rating, C: oval-leafed pondweed: 4 (Herbicidal rate of 70% or more and less than 90%)
Chinese sprangletop
  herbicidal effect on D (Chinese sprangletop), rating 0-5: 1 (Herbicidal rate of 5% or more and less than 20%)
Southern crabgrass; 320 g/ha
  herbicidal effect rating, F: southern crabgrass: 0 (Herbicidal rate of 5% or less (almost no effect))
Wild oat [1]; 320 g/ha
  herbicidal effect rating, I: wild oat: 0 (Herbicidal rate of 5% or less (almost no effect))
blackgrass; 320 g/ha
  herbicidal effect rating, J: blackgrass: 0 (Herbicidal rate of 5% or less (almost no effect))
Italian ryegrass; 320 g/ha
  herbicidal effect rating, K: Italian ryegrass: 0 (Herbicidal rate of 5% or less (almost no effect))
Windgrass [2]; 320 g/ha
  herbicidal effect rating, L: windgrass: 0 (Herbicidal rate of 5% or less (almost no effect))
Lambsquarters [3]; 320 g/ha
  herbicidal effect rating, O: lambsquarters: 5 (Herbicidal rate of 90% or more (almost completely withered))
Persian speedwell [4]; 320 g/ha
  herbicidal effect rating, R: persian speedwell: 4 (Herbicidal rate of 70% or more and less than 90%)
Barnyard grass; 3 weeks after application
  effect on barnyard grass (H): 5 (Herbicidal rate of 90% or more (almost completely withered))
Wild oat [5]; 3 weeks after application
  effect on wild oat (I): 0 (Herbicidal rate of 5% or less (almost no effect))
Windgrass [6]; 3 weeks after application
  effect on windgrass (L): 0 (Herbicidal rate of 5% or less (almost no effect))
velvetleaf; 3 weeks after application
  effect on velvetleaf (M): 5 (Herbicidal rate of 90% or more (almost completely withered))
Lambsquarters [7]; 3 weeks after application
  effect on lambsquarters (O): 5 (Herbicidal rate of 90% or more (almost completely withered))
Persian speedwell [8]; 3 weeks after application
  effect on persian speedwell (R): 5 (Herbicidal rate of 90% or more (almost completely withered))
